In PMC10683025, “Discovery of a Hydroxylamine-Based Brain-Penetrant EGFR Inhibitor for Metastatic Non-Small-Cell Lung Cancer” (Journal of Medicinal Chemistry, 2023):
Like-named read-outs stand apart in the source and are kept apart here.

How the values were obtained:
[1] = Metabolic stability in hepatocytes; assay type: in vitro ADME, cynomolgus monkey; conditions: for Remaining Percentages: monkey hepatocytes
Description: Microsome stability was assessed in duplicate (n = 2) in the presence and absence of nicotinamide adenine dinucleotide phosphate (NADPH) with liver microsomes (0.5 mg/mL) from human (BD Gentest) and Sprague-Dawley rats (BD Gentest). Compounds were incubated in liver microsomes at 1 μM and samples (30 μL) were taken at 0.5, 15, 30, 45, and 60 min time points for analysis by LC-MS/MS. Hepatocyte stability was assessed in duplicate (n = 2) at a working cell density of 0.5 × 10^6 cells/mL with hepatocytes from human (BiolVT), Sprague-Dawley rat (BiolVT), cynomolgus monkey (RILD) or beagle dog (BiolVT). […] The in vitro half-life and intrinsic clearances were determined as previously described.[76]
In vitro half-life (in vitro t1/2) was determined from the slope value in [drawing 1] where k was determined by linear regression of the natural logarithm of the remaining percentage of the parent drug vs the incubation time curve.

TA1535 = tested on: TA1535; set-up: species or system Salmonella
[2] = In vitro metabolite identification; assay type: in vitro ADME; conditions: human hepatocytes, 10 μM
Pharmacokinetic study = assay type: in vivo, BALB/c nude mice
Description: Animal experiments were performed at Pharmaron, Inc. and animal use was approved by Pharmaron’s Institutional Animal Care and Use Committee (IACUC) in Pharmaron (Pharmaron IACUC, Protocol #PK-M-07182022, #PK-R-06012022, and #ON-CELL-XEN-06012022) following the guidance of AAALAC. Six- to eight-week-old male Sprague-Dawley rats (approximately 200–300 g) obtained from Si Bei Fu Laboratory Animal Technology Co., six- to eight-week-old male CD1 mice (approximately 20–30 g) obtained from Si Bei Fu Laboratory Animal Technology Co., and six- to eight-week-old female BALB/c nude mice (approximately 20–30 g) obtained from Si Bei Fu Laboratory Animal Technology Co., were used in the pharmacokinetic studies. Six- to eight-week-old female BALB/c nude mice (approximately 18–22 g) obtained from Beijing Anikeeper Biotech Co., Ltd. were used in the intracranial PDX study. Animals were housed at 20–25 °C with humidity ranging from 40 to 70% relative humidity, were exposed to 12 h light and dark cycles, and were supplied with food and water ab libitum.
Approximately 0.03 mL of blood was collected from the dorsal metatarsal vein (in the case of CD1 mice), 0.03 mL of blood from the orbit vein (in the case of BALB/c nude mice), or 0.2 mL of blood from the jugular vein (in the case of Sprague-Dawley rats) at each time point. Blood at each sampling point was transferred into a plastic micro centrifuge tube containing K2-EDTA, and collection tubes with blood samples and anticoagulant were inverted several times for proper mixing of the tube contents and placed on ice prior to centrifugation for plasma. Blood samples were centrifuged at 4 °C, 4000g for 5 min to obtain plasma. Samples were stored in a freezer at −75 °C prior to analysis. Concentrations of test articles in the plasma samples were determined using LC-MS/MS and WinNonlin 8.3 (Phoenix) was used for pharmacokinetic calculations. The values obtained were plotted on GraphPad Prism software and are presented as mean ± SD.

[3] = biological target: T1, ABL1(H396P)-nonphosphorylated (Homo sapiens, UniProt P00519, H396P); assay: KINOMEScan; assay type: binding; conditions: read-out: Percent Control
T1 construct: purchased Eurofins DiscoverX
Description: (§1) Percent control was mapped onto the kinome tree using TREEspot.

[4] = biological target: T2, ABL1(H396P)-phosphorylated (Homo sapiens, UniProt P00519, H396P); assay: KINOMEScan; assay type: binding; conditions: read-out: Percent Control
T2 construct: purchased Eurofins DiscoverX
Description: as §1

ACVR1B = biological target: T3, ACVR1B (Homo sapiens, UniProt P36896); assay: KINOMEScan; assay type: binding; conditions: read-out: Percent Control
T3 construct: purchased Eurofins DiscoverX
Description: as §1

ACVRL1 = biological target: T4, ACVRL1 (Homo sapiens, UniProt P37023); assay: KINOMEScan; assay type: binding; conditions: ACVRL1, 1 µM; read-out: Percent Control
T4 construct: purchased Eurofins DiscoverX (KINOMEscan)
Description: as §1

ADCK4 = biological target: T5, ADCK4 (Homo sapiens, UniProt Q96D53); assay: KINOMEScan; assay type: binding; conditions: ADCK4, 1 µM; read-out: Percent Control
T5 construct: purchased Eurofins DiscoverX (KINOMEscan)
Description: as §1

AKT1 = biological target: T6, AKT1 (Homo sapiens, UniProt P31749); assay: KINOMEScan; assay type: binding; conditions: AKT1, 1 µM; read-out: Percent Control
T6 construct: purchased Eurofins DiscoverX (KINOMEscan)
Description: as §1

ALK(C1156Y) = biological target: T7, ALK(C1156Y) (Homo sapiens, UniProt Q9UM73, C1156Y); assay: KINOMEScan; assay type: binding; conditions: read-out: Percent Control
T7 construct: purchased Eurofins DiscoverX (KINOMEscan)
Description: as §1

ANKK1 = biological target: T8, ANKK1 (Homo sapiens, UniProt Q8NFD2); assay: KINOMEScan; assay type: binding; conditions: ANKK1, 1 µM; read-out: Percent Control
T8 construct: purchased Eurofins DiscoverX (KINOMEscan)
Description: as §1

ARK5 = biological target: T9, ARK5 (Homo sapiens, UniProt O60285); assay: KINOMEScan; assay type: binding; conditions: ARK5, 1 µM; read-out: Percent Control
T9 construct: purchased Eurofins DiscoverX (KINOMEscan)
Description: as §1

AURKA = biological target: T10, AURKA (Homo sapiens, UniProt O14965); assay: KINOMEScan; assay type: binding; conditions: read-out: Percent Control
T10 construct: purchased Eurofins DiscoverX (KINOMEscan)

AURKB = biological target: T11, AURKB (Homo sapiens, UniProt Q96GD4); assay: KINOMEScan; assay type: binding; conditions: read-out: Percent Control
T11 construct: purchased Eurofins DiscoverX (KINOMEscan)

BLK = biological target: T12, BLK (Homo sapiens, UniProt P51451); assay: KINOMEScan; assay type: binding; conditions: read-out: Percent Control
T12 construct: purchased Eurofins DiscoverX (KINOMEscan)
Description: as §1

BRK = biological target: T13, BRK (Homo sapiens, UniProt Q13882); assay: KINOMEScan; assay type: binding; conditions: read-out: Percent Control
T13 construct: purchased Eurofins DiscoverX (KINOMEscan)
Description: as §1

DRAK1 = biological target: T14, DRAK1 (Homo sapiens, UniProt Q9UEE5); assay: KINOMEScan; assay type: binding; conditions: DRAK1, 1 μM; read-out: Percent Control
T14 construct: purchased Eurofins DiscoverX (contract assay)
T14 sequence (Q9UEE5 1-414): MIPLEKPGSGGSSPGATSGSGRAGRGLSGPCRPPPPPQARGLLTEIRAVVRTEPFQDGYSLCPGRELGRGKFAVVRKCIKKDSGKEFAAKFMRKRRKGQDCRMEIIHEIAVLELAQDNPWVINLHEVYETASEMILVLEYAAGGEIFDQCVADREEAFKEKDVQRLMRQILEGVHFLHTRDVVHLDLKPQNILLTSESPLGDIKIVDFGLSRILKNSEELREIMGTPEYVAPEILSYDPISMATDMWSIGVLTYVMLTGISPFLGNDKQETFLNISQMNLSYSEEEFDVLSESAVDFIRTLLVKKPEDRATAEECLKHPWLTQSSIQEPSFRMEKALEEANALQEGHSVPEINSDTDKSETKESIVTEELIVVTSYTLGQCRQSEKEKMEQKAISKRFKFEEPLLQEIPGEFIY
Description: as §1

[5] = female, BALB/c nude, plasma, Mouse 3 mg/kg (IV)
[6] = female, BALB/c nude, plasma, Mouse 30 mg/kg (PO)

T6 sequence (P31749 whole entry): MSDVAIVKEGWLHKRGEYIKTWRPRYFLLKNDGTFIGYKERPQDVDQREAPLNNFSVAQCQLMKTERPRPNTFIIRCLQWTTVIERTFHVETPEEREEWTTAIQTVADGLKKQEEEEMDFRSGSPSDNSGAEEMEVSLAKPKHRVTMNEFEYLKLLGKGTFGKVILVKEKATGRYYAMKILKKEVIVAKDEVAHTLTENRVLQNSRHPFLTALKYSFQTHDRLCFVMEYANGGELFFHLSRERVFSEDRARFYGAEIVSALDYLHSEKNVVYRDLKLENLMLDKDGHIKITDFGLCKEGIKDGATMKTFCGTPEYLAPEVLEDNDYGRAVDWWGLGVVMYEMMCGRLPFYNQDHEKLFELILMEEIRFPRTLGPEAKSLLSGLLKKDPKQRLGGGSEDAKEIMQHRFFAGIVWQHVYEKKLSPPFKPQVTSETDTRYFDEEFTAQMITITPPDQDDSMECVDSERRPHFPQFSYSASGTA
T9 sequence (O60285 whole entry): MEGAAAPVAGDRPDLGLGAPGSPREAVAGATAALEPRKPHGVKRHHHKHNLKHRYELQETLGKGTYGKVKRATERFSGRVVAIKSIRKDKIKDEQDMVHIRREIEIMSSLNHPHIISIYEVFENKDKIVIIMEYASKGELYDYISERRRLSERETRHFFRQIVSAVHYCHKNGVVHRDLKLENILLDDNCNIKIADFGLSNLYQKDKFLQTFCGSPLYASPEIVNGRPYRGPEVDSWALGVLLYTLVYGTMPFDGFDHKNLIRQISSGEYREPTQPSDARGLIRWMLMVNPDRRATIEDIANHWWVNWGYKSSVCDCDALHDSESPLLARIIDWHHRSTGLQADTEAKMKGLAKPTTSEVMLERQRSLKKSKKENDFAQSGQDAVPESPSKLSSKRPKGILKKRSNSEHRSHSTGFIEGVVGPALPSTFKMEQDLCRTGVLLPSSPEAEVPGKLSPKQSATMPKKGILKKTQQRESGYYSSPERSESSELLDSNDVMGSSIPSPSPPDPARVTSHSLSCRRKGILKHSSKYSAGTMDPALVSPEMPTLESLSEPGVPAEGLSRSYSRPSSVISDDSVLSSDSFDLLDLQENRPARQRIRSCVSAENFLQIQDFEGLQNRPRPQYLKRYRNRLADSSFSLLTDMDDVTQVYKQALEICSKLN
T11 sequence (Q96GD4 whole entry): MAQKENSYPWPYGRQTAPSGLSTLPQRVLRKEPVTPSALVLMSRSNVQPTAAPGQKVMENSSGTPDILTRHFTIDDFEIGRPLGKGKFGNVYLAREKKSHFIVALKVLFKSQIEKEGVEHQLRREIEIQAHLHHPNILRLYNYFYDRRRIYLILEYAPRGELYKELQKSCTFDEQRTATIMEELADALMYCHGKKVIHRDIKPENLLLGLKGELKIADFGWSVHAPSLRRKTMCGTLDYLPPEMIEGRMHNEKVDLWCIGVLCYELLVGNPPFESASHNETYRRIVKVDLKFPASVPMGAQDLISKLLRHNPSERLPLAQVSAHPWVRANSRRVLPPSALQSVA
T12 sequence (P51451 whole entry): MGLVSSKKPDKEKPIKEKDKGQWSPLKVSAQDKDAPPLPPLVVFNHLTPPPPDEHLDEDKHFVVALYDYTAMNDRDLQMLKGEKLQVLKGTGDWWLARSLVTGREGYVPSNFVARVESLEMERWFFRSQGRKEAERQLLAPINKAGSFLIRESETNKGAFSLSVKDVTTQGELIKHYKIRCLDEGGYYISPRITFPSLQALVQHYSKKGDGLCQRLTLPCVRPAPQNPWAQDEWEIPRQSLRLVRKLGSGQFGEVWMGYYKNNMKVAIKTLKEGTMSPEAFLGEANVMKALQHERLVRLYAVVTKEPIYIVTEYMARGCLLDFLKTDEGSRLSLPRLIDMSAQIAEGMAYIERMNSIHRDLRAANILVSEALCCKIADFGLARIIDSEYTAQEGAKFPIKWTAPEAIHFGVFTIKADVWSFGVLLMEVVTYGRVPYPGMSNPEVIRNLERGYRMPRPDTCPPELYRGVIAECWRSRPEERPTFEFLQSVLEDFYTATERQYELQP
T7 sequence (Q9UM73 19-1620 C1156Y): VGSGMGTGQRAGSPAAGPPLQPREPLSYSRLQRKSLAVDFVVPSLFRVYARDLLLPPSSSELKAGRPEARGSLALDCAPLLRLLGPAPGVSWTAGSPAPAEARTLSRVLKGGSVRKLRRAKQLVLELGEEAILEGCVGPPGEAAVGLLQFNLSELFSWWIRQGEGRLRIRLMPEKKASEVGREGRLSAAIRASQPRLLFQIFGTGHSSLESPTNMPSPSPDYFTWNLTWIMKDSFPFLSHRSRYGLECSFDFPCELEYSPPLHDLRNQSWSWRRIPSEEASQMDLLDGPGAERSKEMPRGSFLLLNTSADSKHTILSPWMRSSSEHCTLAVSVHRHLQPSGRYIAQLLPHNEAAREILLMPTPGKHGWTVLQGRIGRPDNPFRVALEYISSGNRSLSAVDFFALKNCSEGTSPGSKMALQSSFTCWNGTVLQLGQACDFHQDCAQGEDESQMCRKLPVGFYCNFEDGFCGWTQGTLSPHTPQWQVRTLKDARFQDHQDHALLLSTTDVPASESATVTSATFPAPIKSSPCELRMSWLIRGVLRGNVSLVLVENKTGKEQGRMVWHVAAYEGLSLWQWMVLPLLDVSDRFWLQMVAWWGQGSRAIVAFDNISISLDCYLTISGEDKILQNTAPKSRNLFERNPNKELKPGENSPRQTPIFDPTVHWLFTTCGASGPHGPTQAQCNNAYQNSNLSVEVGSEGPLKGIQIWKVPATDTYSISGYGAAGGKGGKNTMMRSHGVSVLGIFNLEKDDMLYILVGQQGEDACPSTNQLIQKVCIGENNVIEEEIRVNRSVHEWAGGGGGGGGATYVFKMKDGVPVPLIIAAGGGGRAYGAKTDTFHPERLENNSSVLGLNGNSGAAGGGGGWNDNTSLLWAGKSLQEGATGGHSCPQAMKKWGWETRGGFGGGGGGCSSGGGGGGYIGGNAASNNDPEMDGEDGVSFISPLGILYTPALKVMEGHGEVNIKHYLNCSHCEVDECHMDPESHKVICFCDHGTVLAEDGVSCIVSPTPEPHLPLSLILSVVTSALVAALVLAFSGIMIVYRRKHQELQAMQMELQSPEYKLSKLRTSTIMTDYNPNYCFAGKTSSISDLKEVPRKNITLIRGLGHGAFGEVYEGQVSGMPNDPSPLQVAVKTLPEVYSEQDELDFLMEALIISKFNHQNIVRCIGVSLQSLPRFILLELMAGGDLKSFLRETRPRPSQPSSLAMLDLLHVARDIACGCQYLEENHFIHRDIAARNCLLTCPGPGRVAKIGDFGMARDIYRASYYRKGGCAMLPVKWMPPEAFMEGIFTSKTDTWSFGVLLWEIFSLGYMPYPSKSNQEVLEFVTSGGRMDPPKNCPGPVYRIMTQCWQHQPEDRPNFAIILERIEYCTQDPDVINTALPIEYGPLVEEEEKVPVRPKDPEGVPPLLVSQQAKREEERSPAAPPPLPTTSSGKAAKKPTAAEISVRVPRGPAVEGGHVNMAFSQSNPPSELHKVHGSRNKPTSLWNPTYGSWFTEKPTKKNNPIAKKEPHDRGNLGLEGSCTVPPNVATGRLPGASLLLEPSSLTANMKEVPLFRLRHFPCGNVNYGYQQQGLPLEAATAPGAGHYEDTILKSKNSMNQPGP
T10 sequence (O14965 whole entry): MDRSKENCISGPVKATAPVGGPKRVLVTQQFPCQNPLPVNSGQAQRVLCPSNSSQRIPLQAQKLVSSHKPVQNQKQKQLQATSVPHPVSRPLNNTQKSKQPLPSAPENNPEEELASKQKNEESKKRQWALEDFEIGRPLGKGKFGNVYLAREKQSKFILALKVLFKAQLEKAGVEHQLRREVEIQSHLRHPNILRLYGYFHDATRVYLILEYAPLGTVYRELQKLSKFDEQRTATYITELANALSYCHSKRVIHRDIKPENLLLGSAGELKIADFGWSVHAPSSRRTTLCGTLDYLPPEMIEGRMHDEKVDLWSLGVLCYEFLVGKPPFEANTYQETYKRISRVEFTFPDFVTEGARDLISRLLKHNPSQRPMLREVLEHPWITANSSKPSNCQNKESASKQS
T5 sequence (Q96D53 whole entry): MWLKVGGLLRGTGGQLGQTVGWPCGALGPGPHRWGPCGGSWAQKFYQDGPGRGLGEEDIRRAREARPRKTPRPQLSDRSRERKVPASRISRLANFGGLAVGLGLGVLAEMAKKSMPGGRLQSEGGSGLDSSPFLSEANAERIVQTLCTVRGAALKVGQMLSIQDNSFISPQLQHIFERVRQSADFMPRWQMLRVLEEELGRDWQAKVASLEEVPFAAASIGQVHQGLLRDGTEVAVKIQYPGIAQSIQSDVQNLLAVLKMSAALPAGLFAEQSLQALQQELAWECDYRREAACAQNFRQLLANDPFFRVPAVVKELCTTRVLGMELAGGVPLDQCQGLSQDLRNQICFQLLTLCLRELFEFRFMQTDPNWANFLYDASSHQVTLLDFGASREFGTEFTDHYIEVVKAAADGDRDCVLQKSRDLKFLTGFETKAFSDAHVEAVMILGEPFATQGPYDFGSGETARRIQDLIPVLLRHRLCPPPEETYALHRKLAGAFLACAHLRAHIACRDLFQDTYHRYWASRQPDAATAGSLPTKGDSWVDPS
T3 sequence (P36896 24-505): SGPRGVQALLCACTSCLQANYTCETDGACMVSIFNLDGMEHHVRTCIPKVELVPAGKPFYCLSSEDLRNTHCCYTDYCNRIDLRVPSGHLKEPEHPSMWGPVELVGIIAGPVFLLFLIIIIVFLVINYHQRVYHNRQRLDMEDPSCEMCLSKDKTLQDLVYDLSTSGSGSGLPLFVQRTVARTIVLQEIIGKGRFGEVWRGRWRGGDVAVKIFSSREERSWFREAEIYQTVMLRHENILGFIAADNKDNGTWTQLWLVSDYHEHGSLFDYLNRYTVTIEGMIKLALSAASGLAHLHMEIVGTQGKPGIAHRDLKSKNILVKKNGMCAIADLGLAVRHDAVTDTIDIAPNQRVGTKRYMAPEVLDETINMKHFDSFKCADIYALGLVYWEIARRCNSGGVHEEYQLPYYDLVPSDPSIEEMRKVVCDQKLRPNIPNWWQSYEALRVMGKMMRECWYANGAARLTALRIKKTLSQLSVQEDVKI

COc1cc2ncnc(Nc3cccc(Cl)c3F)c2cc1OCCON1CCN(C)CC1 [Compound 9, N-(3-Chloro-2-fluorophenyl)-7-methoxy-6-(2-((4-methylpiperazin-1-yl)oxy)ethoxy)quinazolin-4-amine]
hepatocyte CLint at 2 h, 1 µM ([1]; cynomolgus monkey, hepatocytes): 29 µL/min/1e6 cells | Remaining Percentages ([1]; 15 min): 49.08% | Remaining Percentages ([1]; 30 min): 30.35% | Remaining Percentages ([1]; 60 min): 13.17% | Remaining Percentages ([1]; 90 min): 4.27% | Remaining Percentages ([1]; 120 min): BLOD | Count (# of wells) (TA1535; TA1535+S9, 1.0E-04 M): 0 | Positive Significance (- to +++) (TA1535; TA1535+S9, 1.0E-04 M): - | Count (# of wells) (TA1535; TA1535+S9, 1.0E-05 M): 3 | Positive Significance (- to +++) (TA1535; TA1535+S9, 1.0E-05 M): - | Count (# of wells) (TA1535; TA1535+S9, 5.0E-05 M): 0 | Positive Significance (- to +++) (TA1535; TA1535+S9, 5.0E-05 M): - | Count (# of wells) (TA1535; TA1535+S9, 5.0E-06 M): 1 | Positive Significance (- to +++) (TA1535; TA1535+S9, 5.0E-06 M): - | Count (# of wells) (TA1535; TA1535-S9, 1.0E-04 M): 0 | Positive Significance (- to +++) (TA1535; TA1535-S9, 1.0E-04 M): - | Count (# of wells) (TA1535; TA1535-S9, 1.0E-05 M): 0 | Positive Significance (- to +++) (TA1535; TA1535-S9, 1.0E-05 M): - | Count (# of wells) (TA1535; TA1535-S9, 5.0E-05 M): 0 | Positive Significance (- to +++) (TA1535; TA1535-S9, 5.0E-05 M): - | Count (# of wells) (TA1535; TA1535-S9, 5.0E-06 M): 0 | Positive Significance (- to +++) (TA1535; TA1535-S9, 5.0E-06 M): - | share of parent/metabolite after incubation of 9 [2]: 14.20% | plasma level at the 24 h time point (Pharmacokinetic study; 30 mg/kg PO, BALB/c nude mice): no compound was detected | clearance (Pharmacokinetic study; [5]): 58.6 ± 8.7 mL/min/kg | half-life at 24 h (Pharmacokinetic study; [5]): 1.67 ± 0.12 h | Vd at 24 h (Pharmacokinetic study; female, BALB/c nude, plasma, Mouse 3 mg/kg (IV), read-out: Vss): 4.68 ± 0.54 L/kg | Cmax at 24 h (Pharmacokinetic study; [6]): 2180 ± 66 nM | Tmax at 24 h (Pharmacokinetic study; [6]): 0.42 ± 0.14 h | bioavailability at 24 h (Pharmacokinetic study; [6]): 61% | half-life at 24 h (Pharmacokinetic study; [6]): 1.84 ± 0.62 h | remaining binding at 1 µM [3]: 1% | remaining binding at 1 µM [4]: 6.6% | remaining binding at 1 µM (ACVR1B): 86% | remaining binding at 1 µM (ACVRL1): 100% | remaining binding at 1 µM (ADCK4): 79% | remaining binding at 1 µM (AKT1): 100% | remaining binding at 1 µM (ALK(C1156Y)): 100% | remaining binding at 1 µM (ANKK1): 97% | remaining binding at 1 µM (ARK5): 100% | remaining binding at 1 µM (AURKA): 75% | remaining binding at 1 µM (AURKB): 84% | remaining binding at 1 µM (BLK): 16% | remaining binding at 1 µM (BRK): 94% | remaining binding at 1 µM (DRAK1): 8.3%
